Laboratory results published in patent US20200178526A1, “Emulsifiable Concentrates” (priority 2016, published 2020).
Like-named read-outs stand apart in the source and are kept apart here.

Key:
[1] = obtained from Hansen's book, pages 399 and 418; cited from earlier work
[2] = Solubility screening of bifenthrin in various solvents; type: physicochemical
Experimental: Four-milliliter (mL) vials are charged with bifenthrin (10 to 50 wt %), a stir bar, and solvent (90 to 50 wt %). The vials are capped and taped to seal. The vials are secured in a vial rack and shaken on a laboratory shaker for 12 hours at ambient lab temperature (21° C.) and humidity (51%). After 12 hours each sample set is evaluated for solubility of solid:
Yes—Homogeneous clear solution
No—Solids present in the sample

[3] = bifenthrin 10 wt % in solvent, shaken 12 hours at 21° C., humidity 51%
[4] = bifenthrin 20 wt % in solvent, shaken 12 hours at 21° C., humidity 51%
[5] = bifenthrin 30 wt % in solvent, shaken 12 hours at 21° C., humidity 51%
[6] = bifenthrin 40 wt % in solvent, shaken 12 hours at 21° C., humidity 51%
[7] = bifenthrin 50 wt % in solvent, shaken 12 hours at 21° C., humidity 51%

Solubility of Bifenthrin, 10 wt % [2] | Solubility of Bifenthrin, 20 wt % [2] | Solubility of Bifenthrin, 30 wt % [2] | Solubility of Bifenthrin, 40 wt % [2] | Solubility of Bifenthrin, 50 wt % [2] | Compound | Hansen Parameter δH (hydrogen bonding) [1] | Hansen Parameter δP (polar) [1] | Solubility of Bifenthrin, 10 wt % [2, 3] | Solubility of Bifenthrin, 20 wt % [2, 4] | Solubility of Bifenthrin, 30 wt % [2, 5] | Solubility of Bifenthrin, 40 wt % [2, 6] | Solubility of Bifenthrin, 50 wt % [2, 7]
YES | YES | YES | NO | NO | CCCCOCCOCCOC(C)=O [BUTYL CARBITOL ™ ACETATE, diethylene glycol n-butyl ether acetate] | 8.2 (J/cc)^1/2 | 4.1 (J/cc)^1/2 | – | – | – | – | –
– | – | – | – | – | CCCCOCCOC(C)=O [BUTYL CELLOSOLVE ™ ACETATE, ethylene glycol n-butyl ether acetate] | 8.8 (J/cc)^1/2 | 4.5 (J/cc)^1/2 | YES | YES | YES | YES | NO
YES | YES | NO | NO | NO | CCOCCOCCO [CARBITOL ™, diethylene glycol monoethyl ether] | – | – | – | – | – | – | –
YES | YES | NO | NO | NO | CCCCCCCCCCCC(=O)OCC [DIAMOSOLV ™ 323, ethyl laurate] | – | – | – | – | – | – | –
YES | NO | NO | NO | NO | CC(CO)OCC(C)Oc1ccccc1 (centres unmarked) [DOWANOL ™ DiPPH, dipropylene glycol phenyl ether] | – | – | – | – | – | – | –
– | – | – | – | – | OCCOc1ccccc1 [DOWANOL ™ EPH, ethylene glycol phenyl ether] | – | – | NO | NO | NO | NO | NO
YES | YES | YES | NO | NO | CC(=O)OCC(C)OC(C)=O (centres unmarked) [DOWANOL ™ PGDA, propylene glycol diacetate] | – | – | – | – | – | – | –
YES | NO | NO | NO | NO | CC(O)COc1ccccc1 (centres unmarked) [DOWANOL ™ PPH, propylene glycol phenyl ether] | – | – | – | – | – | – | –
YES | YES | NO | NO | NO | CCCCOC(C)COC(C)COC(C)CO (centres unmarked) [DOWANOL ™ TPNB, tripropylene glycol n-butyl ether] | – | – | – | – | – | – | –
YES | YES | YES | NO | NO | CCCCOCCOC(=O)c1ccccc1 [XU40782.00, ethylene glycol n-butyl ether benzoate] | – | – | – | – | – | – | –
– | – | – | – | – | polyethylene glycol monophenyl ether [DOWANOL ™ EPH6] | – | – | NO | NO | NO | NO | NO
